Reference: patent publication US20050137261A1, “Method for treating inflammatory bowel diseases” (MEIJI DAIRIES CORPORATION, priority 2003, published 2005)

What was measured:
[1] = subject of milk intolerance; DHNA or its salts; taught by WO03/016544; cited from earlier work
β7 positive cells = test: Immunohistochemical staining (LSAB) of large intestine sections, DSS colitis, anti-β7integrin; format: in vivo, C57/BL6 Mice; details: large intestine frozen sections, DHNA administration group
Procedure: (§1) C57/BL6 Mice (female, 8 weeks old) were employed. They were bred under SPF conditions, and then used in the test.
(§2) 2.5% Dextran sodium sulfate (DSS, MW 50,000) was added to drinking water (distilled water) for mice, and the mice were allowed to drink the resultant water freely for 7 days (induction of colitis). Subsequently, DHNA was administered to the mice in the following manner.
(§3) DHNA was dissolved in dimethyl sulfoxide (DMSO) (0.1 g/0.5 mL). The resultant neat solution, along with ascorbic acid for stabilizing DHNA (1%), was added to drinking water (distilled water) for mice, and the mice were allowed to drink the resultant water freely for 7 days. DHNA concentration was 0.6 mg/kg or 2 mg/kg. Distilled water to which DMSO and ascorbic acid had been added in equal amounts was employed as a control group.
(§4) The large intestine was removed from each mouse, and fixed with periodate-lysine-paraformaldehyde (PLP), whereby frozen slices were prepared. Through use of the thus-obtained frozen sections, immunohistochemical staining using labeled streptavidin-biotin (LSAB) and HE-staining were performed. In the immunohistochemical staining, anti-MAdCAM-1 and anti-β7integrin were used as primary antibodies and biotin-labeled FITC was employed as a secondary antibody.

MAdCAM-1 = test: Immunohistochemical staining (LSAB) of large intestine sections, DSS colitis, anti-MAdCAM-1; format: in vivo, C57/BL6 Mice; details: large intestine frozen sections, DHNA administration group
Procedure: as §1, §2, §3, §4

[2] = tested on: dextran sodium sulfate (DSS) colitis; test: DSS colitis in mice: survival rate and HE-staining of the large intestine; format: in vivo, C57/BL6 Mice
Procedure: C57/BL6 Mice (female, 8 weeks old) were employed. They were bred under SPF conditions, and then used in the test. 2.5% Dextran sodium sulfate (DSS, MW 50,000) was added to drinking water (distilled water) for mice, and the mice were allowed to drink the resultant water freely for 7 days (induction of colitis). Subsequently, DHNA was administered to the mice in the following manner. DHNA was dissolved in dimethyl sulfoxide (DMSO) (0.1 g/0.5 mL). The resultant neat solution, along with ascorbic acid for stabilizing DHNA (1%), was added to drinking water (distilled water) for mice, and the mice were allowed to drink the resultant water freely for 7 days. DHNA concentration was 0.6 mg/kg or 2 mg/kg. Distilled water to which DMSO and ascorbic acid had been added in equal amounts was employed as a control group. Survival rate was that as determined for the mice on day 10 after starting administration of DHNA. The large intestine was removed from each mouse, and fixed with periodate-lysine-paraformaldehyde (PLP), whereby frozen slices were prepared. Through use of the thus-obtained frozen sections, immunohistochemical staining using labeled streptavidin-biotin (LSAB) and HE-staining were performed. In the immunohistochemical staining, anti-MAdCAM-1 and anti-β7integrin were used as primary antibodies and biotin-labeled FITC was employed as a secondary antibody.

Bifidobacterium bifidum = details: taught by WO03/016544; cited from earlier work

SMILES: O=C(O)c1cc(O)c2ccccc2c1O [DHNA, 1,4-dihydroxy-2-naphthoic acid]
- Abdominal discomfort after ingestion of milk [1]: mitigate abdominal discomfort
- β7 positive cells (immunohistochemical staining) (β7 positive cells): reduced
- Expression of adhesion molecule MAdCAM-1 (MAdCAM-1): suppressed
- Survival rate ([2]; day 10 after starting the test, DHNA 0.6 mg/kg or 2 mg/kg in drinking water for 7 days after 2.5% DSS for 7 days, versus control group): significantly high
- HE-staining findings: ulcer and erosion in the epithelium, cellular infiltration, submucosal thickening ([2]; large intestine, DHNA administration group versus control group): suppression of the above conditions was observed
- Development of DSS enteritis ([2]; overall conclusion, by suppressing infiltration of activated immunocytes): suppress development of DSS enteritis
- Proliferation of Bifidobacterium bifidum (Bifidobacterium bifidum): stimulating proliferation
